In ChEMBL document CHEMBL1201862, “PubChem BioAssay data set” (2004):
Activity calls are given as the source filed them.

Columns and labels:
[1] = molecular target: Nonstructural protein 1 (Influenza A virus, UniProt Q194T2); type: functional, Influenza A virus (A/California/07/2009(H1N1))
[2] = molecular target: Heat shock protein HSP 90-alpha (Homo sapiens, UniProt P07900); type: functional, organism-based
[3] = molecular target: T1, Protein skinhead-1 (Caenorhabditis elegans, UniProt P34707); type: functional
T1 sequence (P34707 whole entry): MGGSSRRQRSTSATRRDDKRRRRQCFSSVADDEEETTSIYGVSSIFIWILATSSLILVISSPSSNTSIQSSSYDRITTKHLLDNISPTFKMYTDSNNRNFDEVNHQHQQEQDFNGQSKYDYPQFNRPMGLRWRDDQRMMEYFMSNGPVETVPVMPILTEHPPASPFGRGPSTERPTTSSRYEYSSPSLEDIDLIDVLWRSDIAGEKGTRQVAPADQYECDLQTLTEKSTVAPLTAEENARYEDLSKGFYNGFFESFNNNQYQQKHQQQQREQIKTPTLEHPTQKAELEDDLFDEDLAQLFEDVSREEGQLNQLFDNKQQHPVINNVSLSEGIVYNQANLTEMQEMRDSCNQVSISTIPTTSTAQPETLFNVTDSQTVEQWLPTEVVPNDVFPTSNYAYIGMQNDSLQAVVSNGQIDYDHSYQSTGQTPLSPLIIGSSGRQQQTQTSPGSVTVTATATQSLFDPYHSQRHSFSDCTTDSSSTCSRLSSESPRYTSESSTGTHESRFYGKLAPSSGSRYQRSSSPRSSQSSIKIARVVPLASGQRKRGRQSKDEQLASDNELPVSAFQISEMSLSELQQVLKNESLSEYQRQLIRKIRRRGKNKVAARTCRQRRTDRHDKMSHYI

[4] = molecular target: Fatty acid synthase (Homo sapiens, UniProt P49327); assay: FAS thioesterase domain inhibitors, dose response, biochemical, kinetic fluorescence intensity (AID 624326); type: functional;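 further: rate of fluorescence rise from hydrolysis of a fluorogenic O-methyl fluorescein ester substrate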
[5] = molecular target: Induced myeloid leukemia cell differentiation protein Mcl-1 (Homo sapiens, UniProt Q07820); type: functional
[6] = HEp-2 cell cytotoxicity, dose response, cytotoxicity control for RSV inhibitor project, HTS (AID 2410); type: functional; details: human respiratory syncytial virus
[7] = molecular target: Cytochrome P450 2C9 (Homo sapiens, UniProt P11712)
[8] = system: Streptococcus; assay: Group A Streptococcus viability loss, dose response, counter-screen for streptokinase expression inhibitor project, luminescence, BacTiterGlo (AID 1915); type: functional, organism-based;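 further: potency for reduction of bacterial viability or growth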
[9] = system: Streptococcus sp. 'group A'; assay: growth inhibition of control SK(-) GAS strain, dose response, counter-screen for streptokinase expression inhibitor project, luminescence, kanamycin, BacTiterGlo, confirmation (AID 1900); type: functional, organism-based
[10] = molecular target: Large T antigen (Simian virus 40, UniProt P03070); type: functional, Betapolyomavirus macacae;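 further: Confirmatory-stage PubChem screen for compounds that inhibit SV40 T antigen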
[11] = cytotoxicity toward NIH3T3 fibroblasts, dose response, counter-screen, cell-based, ATP luminescence, mouse fibroblasts (AID 2010); type: functional;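 further: cells exposed to compound for about 90 hours before reading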
[12] = cells; type: functional
[13] = inhibitors of intracellular T. cruzi replication, confirmation, NIH3T3 host cells, beta-gal luminescence (AID 2044); type: functional, cell-based;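 further: intracellular parasites grown in NIH/3T3 mouse fibroblasts as host cells; luminescent beta-galactosidase reporter signal from transgenic T. cruzi replicating inside host cells; inhibitors lower the luminescence signal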
[14] = molecular target: Cytochrome P450 3A4 (Homo sapiens, UniProt P08684);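 further: CYP3A4 tested as one member of a cytochrome P450 panel screen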
[15] = molecular target: T2, Heat shock factor protein 1 (Mus musculus, UniProt P38532); assay: HSF1 potentiators in luciferase reporter cells, confirmation, cell-based, NIH3T3, luminescence, dose retest (AID 435004); type: functional;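 further: stress induced by proteasome inhibitor MG132 added 30 min after compound; luciferase reporter driven by HSF1 response element in NIH3T3 cells; actives raise luminescence as potentiators of the MG132 stress response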
T2 sequence (P38532 whole entry): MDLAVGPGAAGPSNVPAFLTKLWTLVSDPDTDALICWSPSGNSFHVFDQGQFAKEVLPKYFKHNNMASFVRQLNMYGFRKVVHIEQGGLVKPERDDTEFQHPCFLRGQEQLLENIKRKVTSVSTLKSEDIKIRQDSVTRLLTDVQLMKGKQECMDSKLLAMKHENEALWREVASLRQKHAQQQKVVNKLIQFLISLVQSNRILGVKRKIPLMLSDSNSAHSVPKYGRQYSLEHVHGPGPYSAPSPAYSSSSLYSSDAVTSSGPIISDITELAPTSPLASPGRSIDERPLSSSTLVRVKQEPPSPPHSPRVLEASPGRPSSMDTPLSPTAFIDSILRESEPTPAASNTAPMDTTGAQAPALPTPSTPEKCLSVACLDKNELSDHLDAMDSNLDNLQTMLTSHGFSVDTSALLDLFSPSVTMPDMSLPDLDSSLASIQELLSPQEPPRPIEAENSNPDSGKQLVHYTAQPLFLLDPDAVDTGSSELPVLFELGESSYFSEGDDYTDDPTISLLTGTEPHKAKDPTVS

[16] = molecular target: FAD-linked sulfhydryl oxidase ALR (Homo sapiens, UniProt P55789); assay: inhibitors of human ALR sulfhydryl oxidase, dose response, biochemical, H2O2 detection, luminescence, cherry-pick (AID 493248)
[17] = intracellular Trypanosoma cruzi inhibitors in host cells – cell-based, plate reader, cherry-pick samples, set 3, dose response (AID 651818); type: functional;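 further: compounds incubated with infected cells for about four days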
[18] = inhibitors of clade B AD8 Env fusion, dose response, cell-based, cherry-pick (AID 652062); type: functional;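 further: luciferase signal from cell-cell fusion driven by HIV-1 clade B AD8 Env; potency is for inhibitors of fusion seen as a drop in luminescence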
[19] = ZM109 Env clade C HIV-1 fusion inhibitors, dose response, HeLa effector, CEM target cells, luciferase, cherry-pick (AID 652058); type: functional, cell-based
[20] = inhibitors of HIV Env-driven cell fusion, dose response, cherry-pick (AID 652057); type: functional, cell-based
[21] = C. albicans growth with fluconazole, confirmation, fluorescence, retest (AID 2467); type: functional, cell-based
[22] = NIH-3T3 fibroblast cytotoxicity, dose response, cytotoxicity control, cell-based, fluorescence, Alamar Blue, secondary assay (AID 2327); type: functional;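 further: NIH-3T3 mouse fibroblasts cultured with fluconazole at 8 µg/mL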
[23] = P. falciparum Dd2 growth inhibitors, dose response, SYBR Green, cherry-picked samples (AID 1159567); type: functional, cell-based
[24] = molecular target: T3, Streptokinase A (Streptococcus pyogenes serotype M1, UniProt P10520); assay: S. pyogenes streptokinase expression inhibitors, potency, dose response, plasminogen activation absorbance, OD405 (AID 1914); type: functional, Streptococcus pyogenes M1 GAS;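 further: secreted streptokinase activity via plasminogen activation per viability signal from cell pellet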
T3 sequence (P10520 whole entry): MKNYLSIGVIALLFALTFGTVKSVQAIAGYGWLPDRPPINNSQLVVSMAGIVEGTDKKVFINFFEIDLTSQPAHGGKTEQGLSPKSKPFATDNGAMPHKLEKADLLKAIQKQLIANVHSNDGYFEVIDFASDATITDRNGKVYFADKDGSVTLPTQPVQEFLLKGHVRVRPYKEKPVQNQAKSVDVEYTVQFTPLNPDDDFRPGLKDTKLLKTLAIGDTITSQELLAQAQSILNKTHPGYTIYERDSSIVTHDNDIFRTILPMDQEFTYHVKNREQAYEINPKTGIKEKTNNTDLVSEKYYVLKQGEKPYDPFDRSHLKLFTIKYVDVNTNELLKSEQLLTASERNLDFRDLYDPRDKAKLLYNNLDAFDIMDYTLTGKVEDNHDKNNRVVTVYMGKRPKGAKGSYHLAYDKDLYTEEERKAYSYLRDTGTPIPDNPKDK

Induced myeloid leukemia cell differentiation protein Mcl-1, sequence (Q07820 whole entry): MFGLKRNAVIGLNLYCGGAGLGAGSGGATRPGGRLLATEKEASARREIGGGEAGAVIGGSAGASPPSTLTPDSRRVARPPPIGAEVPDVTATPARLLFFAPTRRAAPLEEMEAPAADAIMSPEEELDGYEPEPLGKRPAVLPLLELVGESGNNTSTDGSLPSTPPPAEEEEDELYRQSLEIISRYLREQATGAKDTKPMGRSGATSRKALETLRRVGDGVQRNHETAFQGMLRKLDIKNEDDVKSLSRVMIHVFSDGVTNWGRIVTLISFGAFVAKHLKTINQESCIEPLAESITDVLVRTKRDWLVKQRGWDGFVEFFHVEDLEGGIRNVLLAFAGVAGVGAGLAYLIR
Cytochrome P450 2C9, sequence (P11712 whole entry): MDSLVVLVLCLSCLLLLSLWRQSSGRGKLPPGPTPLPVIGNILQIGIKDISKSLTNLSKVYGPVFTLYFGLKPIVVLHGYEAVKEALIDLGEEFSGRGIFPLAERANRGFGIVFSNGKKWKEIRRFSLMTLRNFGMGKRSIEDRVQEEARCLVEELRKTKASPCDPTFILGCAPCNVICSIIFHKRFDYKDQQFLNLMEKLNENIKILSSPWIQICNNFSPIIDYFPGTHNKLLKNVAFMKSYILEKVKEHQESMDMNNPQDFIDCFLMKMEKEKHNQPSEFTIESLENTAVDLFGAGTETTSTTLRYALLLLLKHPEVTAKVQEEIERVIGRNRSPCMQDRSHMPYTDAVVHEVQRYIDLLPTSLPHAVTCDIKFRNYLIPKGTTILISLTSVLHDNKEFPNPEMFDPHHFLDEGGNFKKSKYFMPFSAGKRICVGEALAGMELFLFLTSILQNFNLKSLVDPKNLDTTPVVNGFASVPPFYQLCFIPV
Nonstructural protein 1, sequence (Q194T2 whole entry): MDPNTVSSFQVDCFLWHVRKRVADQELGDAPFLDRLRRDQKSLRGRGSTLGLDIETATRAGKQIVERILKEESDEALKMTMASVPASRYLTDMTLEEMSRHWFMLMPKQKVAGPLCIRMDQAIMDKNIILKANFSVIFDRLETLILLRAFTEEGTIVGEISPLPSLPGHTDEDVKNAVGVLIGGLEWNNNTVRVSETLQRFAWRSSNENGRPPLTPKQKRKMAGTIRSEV
Cytochrome P450 3A4, sequence (P08684 whole entry): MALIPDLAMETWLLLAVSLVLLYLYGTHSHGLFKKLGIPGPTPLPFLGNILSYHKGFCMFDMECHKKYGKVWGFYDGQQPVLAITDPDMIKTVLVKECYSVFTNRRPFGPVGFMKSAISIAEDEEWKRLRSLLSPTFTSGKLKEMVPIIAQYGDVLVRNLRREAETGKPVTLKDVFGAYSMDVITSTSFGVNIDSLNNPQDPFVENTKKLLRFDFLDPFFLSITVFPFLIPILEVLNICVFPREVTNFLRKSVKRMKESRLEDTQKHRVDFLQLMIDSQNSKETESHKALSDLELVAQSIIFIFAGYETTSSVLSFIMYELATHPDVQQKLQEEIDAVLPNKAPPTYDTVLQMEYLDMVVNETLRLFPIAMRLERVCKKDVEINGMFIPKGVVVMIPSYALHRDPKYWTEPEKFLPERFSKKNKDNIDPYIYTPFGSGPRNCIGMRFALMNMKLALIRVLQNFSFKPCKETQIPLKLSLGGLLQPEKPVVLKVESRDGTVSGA
FAD-linked sulfhydryl oxidase ALR, sequence (P55789 whole entry): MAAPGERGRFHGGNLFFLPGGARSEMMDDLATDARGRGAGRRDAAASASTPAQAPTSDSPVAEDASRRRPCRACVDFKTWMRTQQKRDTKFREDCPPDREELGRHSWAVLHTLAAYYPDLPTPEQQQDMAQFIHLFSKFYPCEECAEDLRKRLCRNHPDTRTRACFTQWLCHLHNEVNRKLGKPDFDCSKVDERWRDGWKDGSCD
Large T antigen, sequence (P03070 whole entry): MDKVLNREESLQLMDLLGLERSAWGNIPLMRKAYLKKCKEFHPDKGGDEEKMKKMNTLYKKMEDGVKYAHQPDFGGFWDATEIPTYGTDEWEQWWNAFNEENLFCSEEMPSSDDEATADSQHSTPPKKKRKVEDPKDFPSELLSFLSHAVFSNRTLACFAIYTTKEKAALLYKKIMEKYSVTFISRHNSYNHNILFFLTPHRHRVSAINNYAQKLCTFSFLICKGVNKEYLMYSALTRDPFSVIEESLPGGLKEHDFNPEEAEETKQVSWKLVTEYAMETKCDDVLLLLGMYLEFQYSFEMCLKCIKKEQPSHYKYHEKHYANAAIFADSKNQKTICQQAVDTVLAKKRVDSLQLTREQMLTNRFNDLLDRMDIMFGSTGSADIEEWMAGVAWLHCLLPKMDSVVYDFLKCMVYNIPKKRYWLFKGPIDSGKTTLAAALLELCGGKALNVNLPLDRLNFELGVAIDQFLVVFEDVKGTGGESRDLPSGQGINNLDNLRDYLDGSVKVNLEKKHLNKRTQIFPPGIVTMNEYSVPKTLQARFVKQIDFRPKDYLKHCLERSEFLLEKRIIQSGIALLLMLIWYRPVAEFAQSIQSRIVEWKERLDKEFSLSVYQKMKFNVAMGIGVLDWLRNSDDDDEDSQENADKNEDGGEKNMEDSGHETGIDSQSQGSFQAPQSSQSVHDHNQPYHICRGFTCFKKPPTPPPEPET
Fatty acid synthase, sequence (P49327 whole entry, the tested form may be a part): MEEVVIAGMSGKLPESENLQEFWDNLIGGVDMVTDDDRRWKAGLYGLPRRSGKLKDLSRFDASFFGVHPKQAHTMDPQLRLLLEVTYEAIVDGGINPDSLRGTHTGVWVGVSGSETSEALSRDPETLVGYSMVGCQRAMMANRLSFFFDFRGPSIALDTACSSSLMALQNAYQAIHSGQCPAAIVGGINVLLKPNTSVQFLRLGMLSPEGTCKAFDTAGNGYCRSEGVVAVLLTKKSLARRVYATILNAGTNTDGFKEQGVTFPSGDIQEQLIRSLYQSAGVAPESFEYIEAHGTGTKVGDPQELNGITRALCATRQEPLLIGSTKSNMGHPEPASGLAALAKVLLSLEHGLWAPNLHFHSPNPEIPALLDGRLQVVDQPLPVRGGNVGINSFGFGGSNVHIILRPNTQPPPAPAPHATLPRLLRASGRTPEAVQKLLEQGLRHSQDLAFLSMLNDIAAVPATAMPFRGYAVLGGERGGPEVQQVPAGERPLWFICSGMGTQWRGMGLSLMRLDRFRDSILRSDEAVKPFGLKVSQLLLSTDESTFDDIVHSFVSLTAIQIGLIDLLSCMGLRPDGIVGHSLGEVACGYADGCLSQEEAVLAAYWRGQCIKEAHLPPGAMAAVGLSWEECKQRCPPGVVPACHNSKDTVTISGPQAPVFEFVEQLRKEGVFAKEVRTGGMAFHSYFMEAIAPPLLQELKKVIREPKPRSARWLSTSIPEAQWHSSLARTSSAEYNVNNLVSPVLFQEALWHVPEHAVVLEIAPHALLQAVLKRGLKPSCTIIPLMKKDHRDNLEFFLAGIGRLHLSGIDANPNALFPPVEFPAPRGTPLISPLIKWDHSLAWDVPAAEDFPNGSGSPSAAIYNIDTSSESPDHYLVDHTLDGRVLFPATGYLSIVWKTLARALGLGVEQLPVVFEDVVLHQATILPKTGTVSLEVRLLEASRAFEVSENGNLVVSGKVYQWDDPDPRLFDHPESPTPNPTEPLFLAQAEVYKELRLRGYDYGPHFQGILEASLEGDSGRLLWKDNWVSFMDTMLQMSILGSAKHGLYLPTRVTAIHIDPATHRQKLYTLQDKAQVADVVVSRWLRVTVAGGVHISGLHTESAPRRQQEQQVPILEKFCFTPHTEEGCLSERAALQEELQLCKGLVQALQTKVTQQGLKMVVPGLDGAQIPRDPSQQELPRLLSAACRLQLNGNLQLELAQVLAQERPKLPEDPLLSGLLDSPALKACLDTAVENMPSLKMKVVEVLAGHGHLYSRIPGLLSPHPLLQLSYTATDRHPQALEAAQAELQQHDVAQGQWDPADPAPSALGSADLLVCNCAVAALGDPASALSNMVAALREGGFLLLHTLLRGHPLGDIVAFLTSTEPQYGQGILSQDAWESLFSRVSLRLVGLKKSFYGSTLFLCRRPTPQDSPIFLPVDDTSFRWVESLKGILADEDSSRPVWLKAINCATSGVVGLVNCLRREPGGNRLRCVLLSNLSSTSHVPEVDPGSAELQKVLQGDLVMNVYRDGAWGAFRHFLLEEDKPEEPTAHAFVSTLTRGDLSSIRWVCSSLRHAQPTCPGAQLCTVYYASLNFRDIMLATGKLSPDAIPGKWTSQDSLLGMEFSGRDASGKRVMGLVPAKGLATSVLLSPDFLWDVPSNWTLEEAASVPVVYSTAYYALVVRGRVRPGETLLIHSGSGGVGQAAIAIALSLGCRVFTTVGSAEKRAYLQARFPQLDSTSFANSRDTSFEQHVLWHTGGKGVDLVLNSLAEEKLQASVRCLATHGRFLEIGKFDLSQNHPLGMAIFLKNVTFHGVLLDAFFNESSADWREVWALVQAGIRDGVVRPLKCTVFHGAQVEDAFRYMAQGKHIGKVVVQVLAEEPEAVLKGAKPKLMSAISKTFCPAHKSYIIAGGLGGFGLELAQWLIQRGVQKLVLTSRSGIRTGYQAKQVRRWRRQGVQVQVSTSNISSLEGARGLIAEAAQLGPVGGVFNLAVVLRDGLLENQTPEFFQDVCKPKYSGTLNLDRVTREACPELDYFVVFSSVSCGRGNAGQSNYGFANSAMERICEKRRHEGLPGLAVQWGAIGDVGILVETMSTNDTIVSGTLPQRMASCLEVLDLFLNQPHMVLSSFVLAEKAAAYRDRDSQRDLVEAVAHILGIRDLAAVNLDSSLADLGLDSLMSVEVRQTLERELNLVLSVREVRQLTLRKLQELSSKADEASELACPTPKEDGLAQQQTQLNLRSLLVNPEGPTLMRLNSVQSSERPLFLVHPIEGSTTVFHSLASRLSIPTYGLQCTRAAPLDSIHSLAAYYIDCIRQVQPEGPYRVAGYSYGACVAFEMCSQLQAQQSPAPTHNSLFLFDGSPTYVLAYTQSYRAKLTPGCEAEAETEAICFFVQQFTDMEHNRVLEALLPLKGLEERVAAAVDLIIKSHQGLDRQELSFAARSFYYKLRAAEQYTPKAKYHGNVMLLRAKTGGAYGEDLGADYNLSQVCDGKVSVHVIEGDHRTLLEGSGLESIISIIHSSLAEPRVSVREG

## O=C(NCCCn1ccnc1)C(=O)NCC(c1cccnc1)N1CCN(c2ccc(F)cc2)CC1 (centres undefined)
[1]
  IC50: > 100 µM (active)

## O=S(=O)(NC1CC2CCC1C2)c1ccc(Br)cc1 (centres undefined)
[2]
  AC50: 1.6 µM (active)

## CC(=O)NC(Cc1ccc(F)cc1)C(=O)N1CCN(C(=O)NCc2ccccc2)CC1 (centres undefined)
[3]
  IC50: > 100 µM (inactive)

## CCCCCn1c(N)c(C(=O)NCCN2CCOCC2)c2nc3ccccc3nc21
[3]
  IC50: > 100 µM (inactive)

## O=C(Nc1nc(-c2ccc(S(=O)(=O)N3CCCC3)cc2)cs1)c1ccco1
[4]
  IC50: 4.05 µM (active)

## CSC1=N/C(=C\c2ccccc2F)C(=O)S1
[5]
  IC50: 24.7 µM (not active)

## CCn1c2ccccc2c2cc(NC(=O)CSc3nnc(-c4ccc(OC)c(OC)c4)n3N)ccc21
[6]
  CC50: > 50 µM (active)
[3]
  IC50: > 100 µM (inactive)
[7]
  AC50: 22.4 µM (inconclusive)

## c1ccc(-c2cc3c(N4CCOCC4)ncnc3s2)cc1
[3]
  IC50: > 100 µM (inactive)

## Cc1c(N=N/C(C#N)=C(\O)c2ccccc2)c(=O)n(-c2ccccc2)n1C
[8]
  EC50: 7.26 µM (active)
[1]
  IC50: 8.08 µM (active)
[9]
  EC50: 2.43 µM (active)

## O=C(/C=C/c1ccc(Cl)cc1Cl)Nc1ccc(CN2CCOCC2)cc1
[3]
  IC50: 27 µM (active)

## COc1cc(/C=C(\C#N)c2ccccn2)cc(OC)c1O
[10]
  IC50: 14.5 µM (active)

## Cc1occc1-c1nnc(-c2cc([N+](=O)[O-])cc([N+](=O)[O-])c2)o1
[2]
  AC50: 2.74 µM (active)
[11]
  EC50: > 60 µM (not active)
[12]
  IC50: 1.37 µM (active)
[13]
  EC50: 0.277 µM (active)

## O=C1CC(=O)c2c1cccc2[N+](=O)[O-]
[5]
  IC50: 3.52 µM (active)

## O=C(Nc1ccc(Cl)cc1Cl)C1=Cc2ccccc2OC1
[3]
  IC50: > 100 µM (inactive)

## O=C(NCCCCc1ccccc1)C1CC(c2ccccc2[N+](=O)[O-])=NO1 (centres undefined)
[5]
  IC50: 7.55 µM (not active)
[7]
  AC50: 31.6 µM (inconclusive)
[14]
  AC50: 14.1 µM (inconclusive)

## Cn1c(=O)c(C(=O)COC(=O)c2cc(-c3ccco3)nc3ccccc23)c(N)n(Cc2ccccc2)c1=O
[5]
  IC50: 2.02 µM (active)

## O=C(Nc1ccc(N2CCOCC2)cc1)Nc1ccc(Cl)c(Cl)c1
[5]
  IC50: 19.5 µM (not active)

## O=C1OC(c2ccccc2)(c2ccc3cc(O)ccc3c2)c2ccccc21 (centres undefined)
[2]
  AC50: 8.23 µM (active)

## CSc1ccccc1OCc1cc(C(=O)N2CCN(C)C(c3ccccc3)C2)no1 (centres undefined)
[2]
  AC50: 1.64 µM (active)

## COc1ccc(N2C(=O)CSC2c2ccncc2)cc1 (centres undefined)
[15]
  EC50: > 260 µM (inactive)
[16]
  AC50: 0.124 µM (active)

## C[C@@H]1CCCCO[C@H](CN(C)C(=O)Nc2ccc(C(F)(F)F)cc2)[C@@H](C)CN([C@H](C)CO)C(=O)c2cc(NC(=O)Nc3ccc4c(c3)OCO4)ccc2O1
[17]
  AC50: 1.68 µM (active)

## C[C@H]1CN([C@@H](C)CO)C(=O)Cc2cc(NC(=O)Nc3cccc4ccccc34)ccc2O[C@@H]1CN(C)Cc1ccc2c(c1)OCO2
[17]
  AC50: 5.35 µM (active)

## C[C@@H]1CN([C@H](C)CO)C(=O)c2cccc(NC(=O)NC3CCCCC3)c2O[C@@H]1CN(C)Cc1ccc(C(=O)Nc2ccccc2N)cc1
[17]
  AC50: 3.74 µM (active)

## C[C@H]1CN([C@@H](C)CO)C(=O)Cc2cc(NC(=O)Cc3cn(C)c4ccccc34)ccc2O[C@H]1CN(C)Cc1ccc(C(=O)Nc2ccccc2N)cc1
[17]
  AC50: 2 µM (active)

## O=C(NCc1cccs1)c1csc([C@@H]2O[C@H](CO)[C@H](O)[C@H](O)[C@H]2O)n1
[3]
  IC50: > 100 µM (inactive)

## CC(C)NC(=O)Nc1cccc2c1O[C@H](CN(C)CC1CCCCC1)[C@@H](C)CN([C@H](C)CO)C2=O
[17]
  AC50: 8.41 µM (active)

## C[C@@H]1CN([C@@H](C)CO)C(=O)Cc2cc(NC(=O)Nc3ccc(C(F)(F)F)cc3)ccc2O[C@@H]1CN(C)Cc1ccncc1
[17]
  AC50: 3.57 µM (active)

## COc1ccc(S(=O)(=O)Nc2ccc3c(c2)CC(=O)N([C@@H](C)CO)C[C@@H](C)[C@@H](CN(C)Cc2ccc(Cl)c(Cl)c2)O3)cc1
[17]
  AC50: 4.36 µM (active)

## Cc1noc(C)c1S(=O)(=O)Nc1ccc2c(c1)C(=O)N([C@H](C)CO)C[C@H](C)[C@@H](CN(C)Cc1ccc(C(=O)Nc3ccccc3N)cc1)OCCCC[C@@H](C)O2
[17]
  AC50: 2.18 µM (active)

## Cc1ccc(S(=O)(=O)N(C)C[C@H]2Oc3c(NC(=O)Nc4ccc(C(F)(F)F)cc4)cccc3C(=O)N([C@@H](C)CO)C[C@H]2C)cc1
[17]
  AC50: 1.55 µM (active)

## Cc1ccc(S(=O)(=O)N(C)C[C@@H]2Oc3ccc(NC(=O)C4CCCCC4)cc3CC(=O)N([C@H](C)CO)C[C@@H]2C)cc1
[18]
  AC50: 2.14 µM (active)
[19]
  AC50: 0.574 µM (active)
[20]
  AC50: < 0.26 µM (active)

## C[C@H]1CN([C@@H](C)CO)C(=O)c2c(c3ccccc3n2C)-c2ccccc2CO[C@H]1CN(C)C(=O)C1CC1
[18]
  AC50: 1.18 µM (active)
[19]
  AC50: 0.462 µM (active)
[20]
  AC50: 0.362 µM (active)

## C/C(CC(=O)Nc1cc(C)ccn1)=N\NC(=O)c1cccc(C)c1O
[21]
  EC50: > 38 µM (not active)
[2]
  AC50: 49.5 µM (active)
[22]
  EC50: > 160 µM (inactive)

## CC(C)C#Cc1ccc([C@@H]2[C@@H](CO)N3C(=O)CN(C(=O)C4CCCCC4)C[C@@H]23)cc1
[23]
  AC50: 7.36 µM (active)

## COc1ccccc1CNC(=O)C[C@H]1C[C@@H]2c3cc(NC(=O)Nc4ccc(C(F)(F)F)cc4)ccc3O[C@@H]2[C@H](CO)O1
[23]
  AC50: 6.78 µM (active)

## CCS(=O)(=O)N1CCC2(CC1)CN(Cc1ccc3c(c1)OCO3)[C@@H](CO)c1[nH]c3cc(OC)ccc3c12
[23]
  AC50: 8.27 µM (active)

## c1ccc(OCc2nc3ccccc3s2)cc1 [2-(PHENOXYMETHYL)BENZOTHIAZOLE]
[3]
  IC50: 29.5 µM (active)

## CC1Oc2cc3oc4c(O)c(O)ccc4c(=O)c3c(O)c2C1(C)C (centres undefined) [TOXYLOXANTHONE C]
[8]
  EC50: 8.07 µM (active)
[24]
  EC50: > 150 µM (not active)
[21]
  EC50: > 38 µM (not active)
[2]
  AC50: 38 µM (active)
[9]
  EC50: 5.91 µM (active)
[22]
  EC50: > 150 µM (inactive)
